Measured values published in ChEMBL document CHEMBL1949499, “Nicotinic acids: liver-targeted SCD inhibitors with preclinical anti-diabetic efficacy” (Bioorg Med Chem Lett, 2011).

Legend:
Stearoyl-CoA desaturase = molecular target: T1, Stearoyl-CoA desaturase (Homo sapiens, UniProt O00767); test: Inhibition of human SCD1
T1 sequence (O00767 whole entry): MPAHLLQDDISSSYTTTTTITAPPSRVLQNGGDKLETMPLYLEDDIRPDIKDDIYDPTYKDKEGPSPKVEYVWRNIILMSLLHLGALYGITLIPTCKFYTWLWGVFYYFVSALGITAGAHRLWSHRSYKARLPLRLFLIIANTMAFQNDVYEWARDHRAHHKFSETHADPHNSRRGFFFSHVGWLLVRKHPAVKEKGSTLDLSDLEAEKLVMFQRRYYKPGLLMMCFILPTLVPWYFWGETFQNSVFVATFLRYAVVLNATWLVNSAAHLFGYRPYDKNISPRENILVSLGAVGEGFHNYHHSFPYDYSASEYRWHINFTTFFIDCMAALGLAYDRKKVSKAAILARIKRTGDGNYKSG

[1] = Drug uptake in C57/BL6 mouse left epididymal fat at 30 mg/kg, po after 2 hrs; type: ADME, organism-based, Epididymal fat pad; set-up: dose 30 mg/kg, route oral; details: male, read-out: Drug uptake
[2] = Half life in C57/BL6 mouse at 10 mg/kg, po and 2 mg/kg, iv; type: ADME, organism-based; details: in vivo
[3] = Plasma concentration in high sucrose/fat free diet fed C57/BL6 mouse at 100 mg/kg, po after 3 hrs; type: ADME, organism-based; set-up: dose 100 mg/kg, route oral
[4] = Drug uptake C57/BL6 in mouse left median liver lobe at 30 mg/kg, po after 6 hrs; type: ADME, organism-based; set-up: dose 30 mg/kg, route oral; details: read-out: Drug uptake
Mus musculus [5] = test: Inhibition of SCD activity in high sucrose/fat free diet fed po dosed C57/BL6 mouse liver assessed as reduction in conversion of [14C]stearic acid to [14C]oleic acid; type: functional, organism-based
[6] = Oral bioavailability in Sprague-Dawley rat plasma at 10 mg/kg; type: ADME, organism-based
[7] = AUC in C57/BL6 mouse plasma at 10 mg/kg, po and 2 mg/kg, iv; type: ADME, organism-based
[8] = Drug uptake in C57/BL6 mouse left median liver lobe at 30 mg/kg, po after 24 hrs; type: ADME, organism-based; set-up: dose 30 mg/kg, route oral; details: read-out: Drug uptake
[9] = Drug uptake in C57/BL6 mouse harderian glands at 30 mg/kg, po after 24 hrs; type: ADME, organism-based, Harderian gland; set-up: dose 30 mg/kg, route oral; details: read-out: Drug uptake
[10] = Plasma clearance in C57/BL6 mouse at 10 mg/kg, po and 2 mg/kg, iv; type: ADME, organism-based
Nucleic Acid [11] = test: Ratio of drug uptake in left median liver lobe to harderian gland in C57/BL6 mouse at 30 mg/kg, po after 2 hrs; type: ADME, organism-based; set-up: dose 30 mg/kg, route oral; details: in vivo
[12] = Drug uptake in C57/BL6 mouse harderian glands at 30 mg/kg, po after 2 hrs; type: ADME, organism-based, Harderian gland; set-up: dose 30 mg/kg, route oral; details: read-out: Drug uptake
[13] = Ratio of drug uptake in left median liver lobe to harderian gland in C57/BL6 mouse at 10 mg/kg, po after 6 hrs; type: ADME, organism-based; set-up: dose 10 mg/kg, route oral; details: in vivo
Acyl-CoA desaturase 1 [14] = molecular target: T2, Acyl-CoA desaturase 1 (Rattus norvegicus, UniProt P07308); test: Inhibition of rat SCD1
T2 sequence (P07308 whole entry): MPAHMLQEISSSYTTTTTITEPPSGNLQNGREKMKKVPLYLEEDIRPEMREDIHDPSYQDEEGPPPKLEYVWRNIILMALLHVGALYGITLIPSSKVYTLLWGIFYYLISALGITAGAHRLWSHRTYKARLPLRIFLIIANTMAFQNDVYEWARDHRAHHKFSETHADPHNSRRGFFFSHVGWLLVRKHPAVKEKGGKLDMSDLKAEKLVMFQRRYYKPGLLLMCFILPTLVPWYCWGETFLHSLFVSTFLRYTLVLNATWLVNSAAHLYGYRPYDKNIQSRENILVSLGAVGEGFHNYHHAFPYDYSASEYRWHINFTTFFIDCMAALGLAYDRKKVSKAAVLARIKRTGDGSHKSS

Nucleic Acid [15] = test: Ratio of drug uptake in high fat diet fed C57/BL6 mouse eDIO model whole blood to high sucrose/fat free diet fed C57/BL6 mouse plasma; type: ADME; details: in vivo
[16] = Drug uptake in high fat diet fed C57/BL6 mouse eDIO model whole blood at 100 mg/kg, po after 3 hrs; type: ADME, organism-based; set-up: dose 100 mg/kg, route oral; details: read-out: Drug uptake
[17] = Drug uptake in C57/BL6 mouse cerebellum at 30 mg/kg, po after 2 hrs; type: ADME, organism-based; set-up: dose 30 mg/kg, route oral; details: read-out: Drug uptake
[18] = Plasma concentration in high sucrose/fat free diet fed C57/BL6 mouse at 30 mg/kg, po after 3 hrs; type: ADME, organism-based; set-up: dose 30 mg/kg, route oral
Mus musculus [19] = test: Acute antidiabetic activity in high fat diet fed po dosed C57/BL6 mouse eDIO model assessed as increase in glucose clearance administered 1 hr prior to glucose challenge by oGTT assay; type: functional, organism-based
[20] = Drug uptake in high sucrose/fat free diet fed C57/BL6 mouse liver at 30 mg/kg, po after 3 hrs; type: ADME, organism-based; set-up: dose 30 mg/kg, route oral; details: read-out: Drug uptake
[21] = Plasma concentration in C57/BL6 mouse at 30 mg/kg, po after 2 hrs; type: ADME, organism-based; set-up: dose 30 mg/kg, route oral
[22] = Drug uptake in C57/BL6 mouse cerebellum at 30 mg/kg, po after 6 hrs; type: ADME, organism-based; set-up: dose 30 mg/kg, route oral; details: read-out: Drug uptake
[23] = Drug uptake in high sucrose/fat free diet fed C57/BL6 mouse liver at 10 mg/kg, po after 3 hrs; type: ADME, organism-based; set-up: dose 10 mg/kg, route oral; details: read-out: Drug uptake
Mus musculus [24] = test: Inhibition of SCD activity in high sucrose/fat free diet fed C57/BL6 mouse liver assessed as reduction in conversion of [14C]stearic acid to [14C]oleic acid at 10 mg/kg, po; type: functional
Acyl-CoA desaturase 1 [25] = molecular target: T3, Acyl-CoA desaturase 1 (Mus musculus, UniProt P13516); test: Inhibition of mouse SCD1
T3 sequence (P13516 whole entry): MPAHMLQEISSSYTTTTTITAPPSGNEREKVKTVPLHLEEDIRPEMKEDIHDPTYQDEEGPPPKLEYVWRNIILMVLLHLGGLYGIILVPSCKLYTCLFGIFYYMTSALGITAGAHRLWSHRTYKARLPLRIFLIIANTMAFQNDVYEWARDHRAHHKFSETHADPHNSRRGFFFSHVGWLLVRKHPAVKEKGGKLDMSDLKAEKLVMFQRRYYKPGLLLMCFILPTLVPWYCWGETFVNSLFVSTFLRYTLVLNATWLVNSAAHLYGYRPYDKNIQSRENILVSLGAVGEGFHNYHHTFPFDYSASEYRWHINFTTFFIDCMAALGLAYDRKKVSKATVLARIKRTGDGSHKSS

[26] = Drug uptake in C57/BL6 mouse heart at 30 mg/kg, po after 2 hrs; type: ADME, organism-based; set-up: dose 30 mg/kg, route oral; details: read-out: Drug uptake
[27] = Volume of distribution at steady state in C57/BL6 mouse at 10 mg/kg, po and 2 mg/kg, iv; type: ADME, organism-based; details: in vivo, read-out: Vdss
Mus musculus [28] = test: Acute antidiabetic activity in high fat diet fed C57/BL6 mouse eDIO model assessed as increase in glucose clearance at 30 mg/kg, po administered 1 hr prior to glucose challenge by oGTT assay; type: functional
[29] = Drug uptake in C57/BL6 mouse left median liver lobe at 30 mg/kg, po after 2 hrs; type: ADME, organism-based; set-up: dose 30 mg/kg, route oral; details: read-out: Drug uptake
[30] = Half life in Sprague-Dawley rat at 10 mg/kg, po and 2 mg/kg, iv; type: ADME, organism-based; details: in vivo
[31] = Drug uptake in C57/BL6 mouse kidney at 30 mg/kg, po after 2 hrs; type: ADME, organism-based; set-up: dose 30 mg/kg, route oral; details: read-out: Drug uptake
[32] = Drug uptake in C57/BL6 mouse skin at 30 mg/kg, po after 2 hrs; type: ADME, organism-based, Zone of skin; set-up: dose 30 mg/kg, route oral; details: read-out: Drug uptake
[33] = Drug uptake in high sucrose/fat free diet fed C57/BL6 mouse liver at 100 mg/kg, po after 3 hrs; type: ADME, organism-based; set-up: dose 100 mg/kg, route oral; details: read-out: Drug uptake

- IC50 (Stearoyl-CoA desaturase): 7 nM
- concentration at 2 h [1]: 106 nM
- half-life [2]: 24 min
- concentration at 3 h [3]: 4390 nM
- concentration at 6 h [4]: 5200 nM
- bioavailability [6]: 43%
- AUC [7]: 0.3 µM·h
- concentration at 24 h [8]: 32 nM
- concentration at 24 h [9]: 5 nM
- clearance [10]: 81 mL/min/kg
- Ratio (Nucleic Acid [11]): 11
- concentration at 2 h [12]: 389 nM
- Ratio [13]: 15
- IC50 (Acyl-CoA desaturase 1 [14]): 15 nM
- Ratio (Nucleic Acid [15]): < 2
- concentration at 3 h [16]: 2240 nM
- concentration at 2 h [17]: 10 nM
- concentration at 3 h [18]: 450 nM
- concentration at 3 h [20]: 9290 nM
- concentration at 2 h [21]: 1210 nM
- concentration at 6 h [22]: 17 nM
- concentration at 3 h [23]: 2970 nM
- IC50 (Acyl-CoA desaturase 1 [25]): 9 nM
- concentration at 2 h [26]: 177 nM
- Vd [27]: 1.12 L/kg
- concentration at 2 h [29]: 4390 nM
- half-life [30]: 84 min
- concentration at 2 h [31]: 6140 nM
- concentration at 2 h [32]: 170 nM
- concentration at 3 h [33]: 53000 nM
SMILES: O=C(O)c1cncc(-c2ccc(N3CCC(Oc4cc(F)ccc4Br)CC3)nn2)c1
- inhibition (Mus musculus [5]): Dose-dependent effect
- Activity (Mus musculus [19]): Dose-dependent effect
- inhibition in vivo at 10 mg/kg (Mus musculus [24]): 25%
- Activity (Mus musculus [28]): 59%
